# Experimental data reported in ChEMBL document CHEMBL6103624, “Design, Synthesis, and Biological Evaluation of Marchantin C-NO Donor Hybrids for Overcoming Pgp-Mediated Drug Resistance by Targeting Lysosome” (J Med Chem, 2025).
# Key:
# MCF7 = test: Antiproliferative activity against human MCF7 cells assessed as inhibition of cell growth incubated for 48 hrs by MTT assay; type: functional, cell-based; settings: MCF7, 48 h
# PC-3 = test: Antiproliferative activity against human PC-3 cells assessed as inhibition of cell growth incubated for 48 hrs by MTT assay; type: functional, cell-based; settings: PC-3, 48 h
# A549 = test: Antiproliferative activity against human A549 cells assessed as inhibition of cell growth incubated for 48 hrs by MTT assay; type: functional, cell-based; settings: A549, 48 h
# HepG2 = test: Antiproliferative activity against human HepG2 cells assessed as inhibition of cell growth incubated for 48 hrs by MTT assay; type: functional, cell-based; settings: HepG2, 48 h
# NCI/ADR-RES = test: Antiproliferative activity against human MCF7ADR cells assessed as inhibition of cell growth incubated for 48 hrs by MTT assay; type: functional, cell-based
# [1] = Selectivity index, ratio of IC50 for antiproliferative activity against human MCF7 cells assessed as inhibition of cell growth to IC50 for antiproliferative activity against human MCF7ADR cells assessed as inhibition of cell growth; type: functional
# A549/TR = test: Antiproliferative activity against human A549/Taxol cells assessed as inhibition of cell growth incubated for 48 hrs by MTT assay; type: functional, cell-based
# [2] = Cytotoxicity against human BEAS-2B cells assessed as inhibition of cell growth incubated for 48 hrs by MTT assay; type: toxicity, cell-based
# [3] = Selectivity index, ratio of IC50 for antiproliferative activity against human A549 cells assessed as inhibition of cell growth to IC50 for antiproliferative activity against human A549/Taxol cells assessed as inhibition of cell growth; type: functional
# [4] = Cytotoxicity against human MCF-10A cells assessed as inhibition of cell growth incubated for 48 hrs by MTT assay; type: toxicity, cell-based
Structure (SMILES),IC50 (MCF7) [µM],IC50 (PC-3) [µM],IC50 (A549) [µM],IC50 (HepG2) [µM],IC50 (NCI/ADR-RES) [µM],Ratio IC50 [1],IC50 (A549/TR) [µM],IC50 at 48 h [2] [µM],Ratio IC50 [3],IC50 at 48 h [4] [µM]
O=[N+]([O-])OCC(COc1ccc2cc1Oc1ccc(cc1)CCc1cccc(OCC(CO[N+](=O)[O-])O[N+](=O)[O-])c1Oc1cccc(c1)CC2)O[N+](=O)[O-] (stereo unspecified),> 20,> 20,> 40,> 20,> 20,,,,,
O=C(/C=C\COc1no[n+]([O-])c1S(=O)(=O)c1ccccc1)Oc1ccc2cc1Oc1ccc(cc1)CCc1cccc(OC(=O)/C=C\COc3no[n+]([O-])c3S(=O)(=O)c3ccccc3)c1Oc1cccc(c1)CC2,,> 20,> 40,> 20,,,,,,
O=C(CCCCCOc1no[n+]([O-])c1S(=O)(=O)c1ccccc1)Oc1ccc2cc1Oc1ccc(cc1)CCc1cccc(OC(=O)CCCCCOc3no[n+]([O-])c3S(=O)(=O)c3ccccc3)c1Oc1cccc(c1)CC2,> 20,> 20,> 40,> 20,> 3,<7,> 20,,,
O=S(=O)(c1ccccc1)c1c(OCCCCOc2cccc3c2Oc2cccc(c2)CCc2ccc(O)c(c2)Oc2ccc(cc2)CC3)no[n+]1[O-],> 20,> 20,> 40,> 20,0.098,>204,5.92,> 20,>7,8.32
O=S(=O)(c1ccccc1)c1c(OCCCCOc2ccc3cc2Oc2ccc(cc2)CCc2cccc(OCCCCOc4no[n+]([O-])c4S(=O)(=O)c4ccccc4)c2Oc2cccc(c2)CC3)no[n+]1[O-],> 20,> 20,> 40,> 20,> 3,<7,> 20,,,
O=S(=O)(c1ccccc1)c1c(OCCCOc2ccc3cc2Oc2ccc(cc2)CCc2cccc(O)c2Oc2cccc(c2)CC3)no[n+]1[O-],8.5,1.2,33.6,,0.24,35,4.79,< 2.5,7,
O=C(CCCOc1no[n+]([O-])c1S(=O)(=O)c1ccccc1)Oc1ccc2cc1Oc1ccc(cc1)CCc1cccc(OC(=O)CCCOc3no[n+]([O-])c3S(=O)(=O)c3ccccc3)c1Oc1cccc(c1)CC2,15.2,> 20,39.5,> 20,0.68,22,15.1,,3,
CCO/N=[N+](\[O-])N1CCN(Cc2ccc3c(c2O)Oc2cccc(c2)CCc2ccc(O)c(c2)Oc2ccc(cc2)CC3)CC1,,> 20,> 40,> 20,,,,,,
O=S(=O)(c1ccccc1)c1c(OCCOc2ccc3cc2Oc2ccc(cc2)CCc2cccc(OCCOc4no[n+]([O-])c4S(=O)(=O)c4ccccc4)c2Oc2cccc(c2)CC3)no[n+]1[O-],24.9,> 20,41.2,> 20,3.2,8,11.5,,4,
O=C(CCCCCOc1no[n+]([O-])c1S(=O)(=O)c1ccccc1)Oc1cccc2c1Oc1cccc(c1)CCc1ccc(O)c(c1)Oc1ccc(cc1)CC2,,> 20,> 40,> 20,,,,,,
O=C(/C=C\COc1no[n+]([O-])c1S(=O)(=O)c1ccccc1)Oc1cccc2c1Oc1cccc(c1)CCc1ccc(O)c(c1)Oc1ccc(cc1)CC2,13.7,> 20,> 40,6.46,> 3,<5,> 20,,,
O=S(=O)(c1ccccc1)c1c(OCCCCCCOc2cccc3c2Oc2cccc(c2)CCc2ccc(O)c(c2)Oc2ccc(cc2)CC3)no[n+]1[O-],> 20,> 20,> 40,> 20,0.37,>54,6.65,> 20,>6,> 20
COc1cccc2c1C(=O)c1c(O)c3c(c(O)c1C2=O)C[C@@](O)(C(=O)CO)C[C@@H]3O[C@H]1C[C@H](N)[C@H](O)[C@H](C)O1 [DOXORUBICIN],< 0.025,,,,32,<0.001,,< 2.5,,< 2.5
O=S(=O)(c1ccccc1)c1c(OCCOc2cccc3c2Oc2cccc(c2)CCc2ccc(O)c(c2)Oc2ccc(cc2)CC3)no[n+]1[O-],9.1,2.92,19.1,1.69,0.9,10,3.39,13.7,6,
O=C(CCCOc1no[n+]([O-])c1S(=O)(=O)c1ccccc1)Oc1cccc2c1Oc1cccc(c1)CCc1ccc(O)c(c1)Oc1ccc(cc1)CC2,,> 20,> 40,> 20,,,,,,
O=C(/N=c1/c[n+](-c2ccccc2)[n-]o1)Oc1ccc2cc1Oc1ccc(cc1)CCc1cccc(OC(=O)/N=c3/c[n+](-c4ccccc4)[n-]o3)c1Oc1cccc(c1)CC2,,> 20,> 40,> 20,,,,,,
O=S(=O)(c1ccccc1)c1c(OCCCCCCOc2ccc3cc2Oc2ccc(cc2)CCc2cccc(OCCCCCCOc4no[n+]([O-])c4S(=O)(=O)c4ccccc4)c2Oc2cccc(c2)CC3)no[n+]1[O-],27.8,> 20,> 40,> 20,> 3,<9,> 20,,,
CC(=O)CCCCn1c(=O)c2c(ncn2C)n(C)c1=O [PENTOXIFYLLINE],,,11,,,,> 20,,<0.5,
CO/N=[N+](\[O-])N1CCN(Cc2ccc3c(c2O)Oc2cccc(c2)CCc2ccc(O)c(c2)Oc2ccc(cc2)CC3)CC1,,> 20,> 40,> 20,,,,,,
O=S(=O)(c1ccccc1)c1c(OC/C=C\COc2ccc3cc2Oc2ccc(cc2)CCc2cccc(OC/C=C\COc4no[n+]([O-])c4S(=O)(=O)c4ccccc4)c2Oc2cccc(c2)CC3)no[n+]1[O-],> 20,,,,> 3,<7,,,,
O=S(=O)(c1ccccc1)c1c(OC/C=C\COc2cccc3c2Oc2cccc(c2)CCc2ccc(O)c(c2)Oc2ccc(cc2)CC3)no[n+]1[O-],> 20,,> 40,,> 3,<7,> 20,,,
O=S(=O)(c1ccccc1)c1c(OCCCOc2ccc3cc2Oc2ccc(cc2)CCc2cccc(OCCCOc4no[n+]([O-])c4S(=O)(=O)c4ccccc4)c2Oc2cccc(c2)CC3)no[n+]1[O-],21,> 20,38.4,> 20,1,21,10.2,,4,
O=S(=O)(c1ccccc1)c1c(Oc2ccc(COc3cccc4c3Oc3cccc(c3)CCc3ccc(O)c(c3)Oc3ccc(cc3)CC4)cc2)no[n+]1[O-],> 20,> 20,> 40,> 20,> 3,<7,,,,
O=S(=O)(c1ccccc1)c1c(OCCOc2ccc3cc2Oc2ccc(cc2)CCc2cccc(O)c2Oc2cccc(c2)CC3)no[n+]1[O-],10.9,2.69,15.2,,0.2,55,5.36,,3,
